Tests used:
Assay in all cases: KINOMEscan competition binding
Conditions in all cases: compound 10.0 µM
[1] = tested on: EIF2AK4 KD2 (human), Q9P2K8 [S808G]
LATS2 (human) = LATS2 (human) (UniProt Q9NRM7)
EPHB6 (human) = EPHB6 (human) (UniProt O15197)
[2] = target: JAK1 JH1 catalytic (human) (UniProt P23458)
ULK3 (human) = ULK3 (human) (UniProt Q6PHR2)
CDK16 (human) = CDK16 (human) (UniProt Q00536)
CDK9 (human) = CDK9 (human) (UniProt P50750)
ABL2 (human) = ABL2 (human) (UniProt P42684)
MAP3K11 (human) = MAP3K11 (human) (UniProt Q16584)
PTK2B (human) = PTK2B (human) (UniProt Q14289)
FLT1 (human) = FLT1 (human) (UniProt P17948)
CDK17 (human) = CDK17 (human) (UniProt Q00537)
MAP2K6 (human) = MAP2K6 (human) (UniProt P52564)
MST1R (human) = MST1R (human) (UniProt Q04912)
MERTK (human) = MERTK (human) (UniProt Q12866)
STK4 (human) = STK4 (human) (UniProt Q13043)
[3] = tested on: EGFR (human), P00533 [746-750 del]
PIP5K1C (human) = PIP5K1C (human) (UniProt O60331)
AURKA (human) = AURKA (human) (UniProt O14965)
MAP4K5 (human) = MAP4K5 (human) (UniProt Q9Y4K4)
ACVR1 (human) = ACVR1 (human) (UniProt Q04771)
SIK2 (human) = SIK2 (human) (UniProt Q9H0K1)
MYO3B (human) = MYO3B (human) (UniProt Q8WXR4)
MYLK4 (human) = MYLK4 (human) (UniProt Q86YV6)
NEK7 (human) = NEK7 (human) (UniProt Q8TDX7)
NEK9 (human) = NEK9 (human) (UniProt Q8TD19)
RPS6KA1 KD1 (human) = RPS6KA1 KD1 (human) (UniProt Q15418)
CLK1 (human) = CLK1 (human) (UniProt P49759)
CDC42BPG (human) = CDC42BPG (human) (UniProt Q6DT37)
MAPK13 (human) = MAPK13 (human) (UniProt O15264)
CLK3 (human) = CLK3 (human) (UniProt P49761)
TGFBR1 (human) = TGFBR1 (human) (UniProt P36897)
NEK6 (human) = NEK6 (human) (UniProt Q9HC98)
[4] = tested on: PIK3CA (human), P42336 [H1047Y]
IKBKE (human) = IKBKE (human) (UniProt Q14164)
PDGFRB (human) = PDGFRB (human) (UniProt P09619)
IRAK3 (human) = IRAK3 (human) (UniProt Q9Y616)
PAK4 (human) = PAK4 (human) (UniProt O96013)
STK38L (human) = STK38L (human) (UniProt Q9Y2H1)
PLK2 (human) = PLK2 (human) (UniProt Q9NYY3)
PDPK1 (human) = PDPK1 (human) (UniProt O15530)
CSNK1E (human) = CSNK1E (human) (UniProt P49674)

Sequence of IKBKE (human) (Q14164 whole entry, looked up): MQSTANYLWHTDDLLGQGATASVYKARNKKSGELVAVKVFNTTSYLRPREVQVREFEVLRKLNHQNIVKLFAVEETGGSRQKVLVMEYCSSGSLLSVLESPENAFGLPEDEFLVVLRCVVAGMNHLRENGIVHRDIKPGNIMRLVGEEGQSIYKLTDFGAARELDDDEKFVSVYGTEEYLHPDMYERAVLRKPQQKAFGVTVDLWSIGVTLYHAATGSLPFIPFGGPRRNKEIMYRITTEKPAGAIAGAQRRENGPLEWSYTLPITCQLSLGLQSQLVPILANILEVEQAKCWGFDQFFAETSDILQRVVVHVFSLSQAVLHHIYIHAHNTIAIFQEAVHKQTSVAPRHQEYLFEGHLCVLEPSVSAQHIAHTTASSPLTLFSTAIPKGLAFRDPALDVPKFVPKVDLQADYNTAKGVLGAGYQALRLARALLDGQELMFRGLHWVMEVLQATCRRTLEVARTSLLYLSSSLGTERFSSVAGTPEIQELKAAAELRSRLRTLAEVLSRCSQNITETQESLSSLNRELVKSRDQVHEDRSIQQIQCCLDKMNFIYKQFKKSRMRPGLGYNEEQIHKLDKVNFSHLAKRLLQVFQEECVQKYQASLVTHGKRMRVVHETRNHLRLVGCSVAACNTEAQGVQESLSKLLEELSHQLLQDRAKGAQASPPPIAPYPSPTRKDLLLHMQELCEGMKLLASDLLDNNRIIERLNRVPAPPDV
Sequence of MST1R (human) (Q04912 whole entry, looked up): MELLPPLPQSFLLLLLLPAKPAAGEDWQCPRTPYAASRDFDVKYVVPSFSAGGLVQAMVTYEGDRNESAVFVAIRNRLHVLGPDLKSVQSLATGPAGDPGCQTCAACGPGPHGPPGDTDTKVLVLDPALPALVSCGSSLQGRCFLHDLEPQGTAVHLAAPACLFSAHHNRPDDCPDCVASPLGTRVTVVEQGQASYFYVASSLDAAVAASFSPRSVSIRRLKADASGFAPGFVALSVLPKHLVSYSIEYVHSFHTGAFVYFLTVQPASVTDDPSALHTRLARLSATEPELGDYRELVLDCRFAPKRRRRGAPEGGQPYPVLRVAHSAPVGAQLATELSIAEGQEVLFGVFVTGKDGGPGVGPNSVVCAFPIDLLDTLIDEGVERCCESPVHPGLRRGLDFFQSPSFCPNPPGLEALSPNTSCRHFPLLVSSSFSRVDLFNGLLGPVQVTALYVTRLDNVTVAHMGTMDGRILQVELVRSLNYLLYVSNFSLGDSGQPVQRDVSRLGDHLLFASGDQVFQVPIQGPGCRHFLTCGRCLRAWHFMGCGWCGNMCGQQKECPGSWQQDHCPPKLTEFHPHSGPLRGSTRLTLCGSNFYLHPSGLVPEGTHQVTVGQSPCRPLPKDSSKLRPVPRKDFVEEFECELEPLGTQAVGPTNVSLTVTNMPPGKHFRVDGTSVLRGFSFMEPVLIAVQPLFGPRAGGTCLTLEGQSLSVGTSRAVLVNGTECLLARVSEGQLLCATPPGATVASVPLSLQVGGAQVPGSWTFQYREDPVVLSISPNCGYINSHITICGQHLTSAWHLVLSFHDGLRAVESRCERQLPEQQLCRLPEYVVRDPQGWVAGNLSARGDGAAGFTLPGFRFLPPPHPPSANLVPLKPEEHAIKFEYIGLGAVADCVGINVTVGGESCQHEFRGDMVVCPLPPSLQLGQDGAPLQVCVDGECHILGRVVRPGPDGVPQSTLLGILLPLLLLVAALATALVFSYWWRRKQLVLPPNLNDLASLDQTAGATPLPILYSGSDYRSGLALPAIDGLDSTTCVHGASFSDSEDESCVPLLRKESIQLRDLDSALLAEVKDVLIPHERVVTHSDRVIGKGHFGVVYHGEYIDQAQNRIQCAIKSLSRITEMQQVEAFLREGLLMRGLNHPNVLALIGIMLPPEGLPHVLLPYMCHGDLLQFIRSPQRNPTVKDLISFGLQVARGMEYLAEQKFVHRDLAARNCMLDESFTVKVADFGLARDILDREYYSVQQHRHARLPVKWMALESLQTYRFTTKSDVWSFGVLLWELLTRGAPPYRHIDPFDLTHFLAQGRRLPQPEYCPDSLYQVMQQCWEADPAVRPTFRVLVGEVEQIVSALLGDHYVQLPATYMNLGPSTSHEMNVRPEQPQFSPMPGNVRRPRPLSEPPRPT
Sequence of NEK6 (human) (Q9HC98 whole entry, looked up): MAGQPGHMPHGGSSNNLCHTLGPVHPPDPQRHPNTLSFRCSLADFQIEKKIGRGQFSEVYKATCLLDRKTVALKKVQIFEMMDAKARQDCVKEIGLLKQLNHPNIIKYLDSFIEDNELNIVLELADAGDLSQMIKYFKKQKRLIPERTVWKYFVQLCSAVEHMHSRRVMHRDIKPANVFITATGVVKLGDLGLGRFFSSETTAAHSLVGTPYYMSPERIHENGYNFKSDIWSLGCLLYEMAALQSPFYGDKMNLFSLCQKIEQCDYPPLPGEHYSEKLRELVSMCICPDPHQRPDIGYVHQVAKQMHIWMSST
Sequence of PDPK1 (human) (O15530 whole entry, looked up): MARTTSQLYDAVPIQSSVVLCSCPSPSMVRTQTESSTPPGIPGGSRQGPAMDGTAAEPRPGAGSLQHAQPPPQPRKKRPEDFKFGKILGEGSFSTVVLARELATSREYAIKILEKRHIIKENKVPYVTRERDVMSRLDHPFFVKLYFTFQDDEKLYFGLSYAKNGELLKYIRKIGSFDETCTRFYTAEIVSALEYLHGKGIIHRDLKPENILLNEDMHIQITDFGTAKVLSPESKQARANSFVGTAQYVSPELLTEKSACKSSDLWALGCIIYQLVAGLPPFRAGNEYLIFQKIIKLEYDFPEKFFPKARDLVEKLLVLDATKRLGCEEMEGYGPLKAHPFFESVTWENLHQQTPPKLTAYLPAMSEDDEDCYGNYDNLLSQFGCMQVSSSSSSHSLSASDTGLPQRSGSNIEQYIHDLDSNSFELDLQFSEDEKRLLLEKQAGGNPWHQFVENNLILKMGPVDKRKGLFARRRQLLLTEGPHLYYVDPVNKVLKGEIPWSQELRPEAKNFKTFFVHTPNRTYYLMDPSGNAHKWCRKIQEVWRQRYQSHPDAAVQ
Sequence of CDK17 (human) (Q00537 whole entry, looked up): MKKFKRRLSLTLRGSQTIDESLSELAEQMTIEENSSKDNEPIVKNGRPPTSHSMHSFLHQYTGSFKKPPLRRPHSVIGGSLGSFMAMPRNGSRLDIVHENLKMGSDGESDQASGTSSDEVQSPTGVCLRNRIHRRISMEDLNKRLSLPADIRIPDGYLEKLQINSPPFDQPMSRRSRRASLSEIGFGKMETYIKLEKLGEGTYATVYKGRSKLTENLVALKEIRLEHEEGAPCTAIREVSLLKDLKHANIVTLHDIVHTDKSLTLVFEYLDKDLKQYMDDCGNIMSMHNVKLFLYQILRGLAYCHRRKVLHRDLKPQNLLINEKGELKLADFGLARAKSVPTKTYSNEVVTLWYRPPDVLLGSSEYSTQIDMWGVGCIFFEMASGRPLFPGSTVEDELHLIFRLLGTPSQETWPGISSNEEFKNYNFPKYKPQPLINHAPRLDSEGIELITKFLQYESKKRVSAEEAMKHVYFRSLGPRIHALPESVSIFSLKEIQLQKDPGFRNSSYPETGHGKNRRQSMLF
Sequence of PLK2 (human) (Q9NYY3 whole entry, looked up): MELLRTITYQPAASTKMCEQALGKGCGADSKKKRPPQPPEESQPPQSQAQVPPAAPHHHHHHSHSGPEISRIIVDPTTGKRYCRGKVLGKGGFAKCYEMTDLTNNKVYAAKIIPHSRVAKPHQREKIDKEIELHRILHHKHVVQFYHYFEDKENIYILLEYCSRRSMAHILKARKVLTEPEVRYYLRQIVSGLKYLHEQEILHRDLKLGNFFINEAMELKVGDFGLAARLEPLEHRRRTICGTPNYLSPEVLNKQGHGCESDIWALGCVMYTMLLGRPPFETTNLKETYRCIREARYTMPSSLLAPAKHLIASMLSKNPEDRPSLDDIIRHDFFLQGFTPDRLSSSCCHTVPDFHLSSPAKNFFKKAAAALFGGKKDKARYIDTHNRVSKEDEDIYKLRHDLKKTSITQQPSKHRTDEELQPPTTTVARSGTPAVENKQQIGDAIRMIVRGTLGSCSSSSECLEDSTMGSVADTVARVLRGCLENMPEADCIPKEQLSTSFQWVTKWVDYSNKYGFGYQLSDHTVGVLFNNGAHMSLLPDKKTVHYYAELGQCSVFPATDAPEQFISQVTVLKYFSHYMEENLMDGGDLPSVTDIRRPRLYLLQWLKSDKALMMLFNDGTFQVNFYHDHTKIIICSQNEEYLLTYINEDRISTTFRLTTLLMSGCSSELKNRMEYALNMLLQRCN
Sequence of IRAK3 (human) (Q9Y616 whole entry, looked up): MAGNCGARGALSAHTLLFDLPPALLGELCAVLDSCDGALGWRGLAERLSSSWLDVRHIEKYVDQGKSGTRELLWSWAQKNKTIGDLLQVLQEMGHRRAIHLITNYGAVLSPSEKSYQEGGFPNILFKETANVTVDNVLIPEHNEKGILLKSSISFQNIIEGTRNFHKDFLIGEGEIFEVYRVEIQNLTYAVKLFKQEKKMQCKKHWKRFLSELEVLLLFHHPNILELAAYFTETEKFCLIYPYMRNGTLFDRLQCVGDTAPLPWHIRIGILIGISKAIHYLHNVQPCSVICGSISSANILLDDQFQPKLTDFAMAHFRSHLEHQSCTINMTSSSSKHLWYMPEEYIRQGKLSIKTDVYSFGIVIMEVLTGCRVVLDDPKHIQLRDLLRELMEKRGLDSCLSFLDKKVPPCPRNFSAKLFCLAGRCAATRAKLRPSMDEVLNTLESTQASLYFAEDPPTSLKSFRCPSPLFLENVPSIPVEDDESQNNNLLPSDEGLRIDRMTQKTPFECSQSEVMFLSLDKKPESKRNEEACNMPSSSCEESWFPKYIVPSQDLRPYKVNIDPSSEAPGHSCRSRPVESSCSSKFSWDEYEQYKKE

## Cc1ccc(NC(=O)c2ccc(NC(=O)/C=C/CN(C)C)cc2)cc1Nc1nccc(-c2cccnc2)n1
[1]
  kinase still bound, per cent of control: 100%
LATS2 (human)
  kinase still bound, per cent of control: 100%
EPHB6 (human)
  kinase still bound, per cent of control: 26%
[2]
  kinase still bound, per cent of control: 100%
ULK3 (human)
  kinase still bound, per cent of control: 100%
CDK16 (human)
  kinase still bound, per cent of control: 100%
CDK9 (human)
  kinase still bound, per cent of control: 100%
ABL2 (human)
  kinase still bound, per cent of control: 44%
MAP3K11 (human)
  kinase still bound, per cent of control: 100%
PTK2B (human)
  kinase still bound, per cent of control: 100%
FLT1 (human)
  kinase still bound, per cent of control: 91%
CDK17 (human)
  kinase still bound, per cent of control: 100%
MAP2K6 (human)
  kinase still bound, per cent of control: 100%
MST1R (human)
  kinase still bound, per cent of control: 100%
MERTK (human)
  kinase still bound, per cent of control: 81%
STK4 (human)
  kinase still bound, per cent of control: 100%
[3]
  kinase still bound, per cent of control: 61%
PIP5K1C (human)
  kinase still bound, per cent of control: 90%
AURKA (human)
  kinase still bound, per cent of control: 100%
MAP4K5 (human)
  kinase still bound, per cent of control: 93%
ACVR1 (human)
  kinase still bound, per cent of control: 100%
SIK2 (human)
  kinase still bound, per cent of control: 80%
MYO3B (human)
  kinase still bound, per cent of control: 100%
MYLK4 (human)
  kinase still bound, per cent of control: 55%
NEK7 (human)
  kinase still bound, per cent of control: 20%
NEK9 (human)
  kinase still bound, per cent of control: 100%
RPS6KA1 KD1 (human)
  kinase still bound, per cent of control: 63%
CLK1 (human)
  kinase still bound, per cent of control: 24%
CDC42BPG (human)
  kinase still bound, per cent of control: 86%
MAPK13 (human)
  kinase still bound, per cent of control: 87%
CLK3 (human)
  kinase still bound, per cent of control: 93%
TGFBR1 (human)
  kinase still bound, per cent of control: 100%
NEK6 (human)
  kinase still bound, per cent of control: 44%
[4]
  kinase still bound, per cent of control: 72%
IKBKE (human)
  kinase still bound, per cent of control: 100%
PDGFRB (human)
  kinase still bound, per cent of control: 0%
IRAK3 (human)
  kinase still bound, per cent of control: 28%
PAK4 (human)
  kinase still bound, per cent of control: 84%
STK38L (human)
  kinase still bound, per cent of control: 100%
PLK2 (human)
  kinase still bound, per cent of control: 34%
PDPK1 (human)
  kinase still bound, per cent of control: 100%
CSNK1E (human)
  kinase still bound, per cent of control: 72%
